According to patent publication US20160367623A1, “AGONISTS OF GUANYLATE CYCLASE USEFUL FOR THE TREATMENT OF GASTROINTESTINAL DISORDERS, INFLAMMATION, CANCER AND OTHER DISORDERS” (priority 2015, published 2016):
Bridge positions count the residues as written; N and C are the ends. Ends that are not written are not given here.

Tested on: patients with chronic idiopathic constipation (CIC)
Assay: Second phase 3 CIC trial: CSBM weekly responders by week
Format: in vivo, human
Settings: MRA
Description: Both trials include a two-week pre-treatment baseline period, a 12-week treatment period, and a two-week post-treatment period. The phase 3 CIC program was designed to support regulatory submission in the U. S.
The primary endpoint for both trials is the proportion of durable overall responders (%), which is the current regulatory endpoint required for U.S. approval in CIC. The FDA has defined a durable overall responder as a patient who fulfills both ≧3 complete spontaneous bowel movements (CSBMs) per week plus an increase of ≧1 CSBM from baseline in the same week, for 9 out of the 12 treatment weeks. In addition, the same patient must be an overall responder for at least 3 of the last 4 treatment weeks in order to be considered a durable overall responder.
Patients were selected using Rome 3 criteria modified for CIC and had (1) fewer than 3 defecations per week, (2) loose stools occurring rarely without laxatives, (3) inadequate criteria for irritable bowel syndrome with constipation (IBS-C), and (4) at least two of the following applied to at least 25% of defecations: (a) straining during evacuation, (b) lumpy or hard stools, (c) sensation of anorectal obstruction or blockage. Rome 3 requires patients to fulfill the criteria for the last 3 months with symptom onset at least 6 months prior to diagnosis.

[1] = Post-Treatment Week 13, 3 mg, All Randomized (includes Duplicate Patients)
[2] = Post-Treatment Week 13, 3 mg, ITT Population
[3] = Post-Treatment Week 13, 3 mg, ITT Population-Excluding Duplicate Patients
[4] = Post-Treatment Week 13, 6 mg, All Randomized (includes Duplicate Patients)
[5] = Post-Treatment Week 13, 6 mg, ITT Population
[6] = Post-Treatment Week 13, 6 mg, ITT Population-Excluding Duplicate Patients
[7] = Post-Treatment Week 13, Active Combined, All Randomized (includes Duplicate Patients)
[8] = Post-Treatment Week 13, Active Combined, ITT Population-Excluding Duplicate Patients
[9] = Post-Treatment Week 13, Active Combined, ITT Population
[10] = Post-Treatment Week 14, 3 mg, All Randomized (includes Duplicate Patients)
[11] = Post-Treatment Week 14, 3 mg, ITT Population
[12] = Post-Treatment Week 14, 3 mg, ITT Population-Excluding Duplicate Patients
[13] = Post-Treatment Week 14, 6 mg, ITT Population
[14] = Post-Treatment Week 14, 6 mg, ITT Population-Excluding Duplicate Patients
[15] = Post-Treatment Week 14, Active Combined, ITT Population-Excluding Duplicate Patients
[16] = Post-Treatment Week 14, Active Combined, ITT Population
[17] = Week 1, 3 mg, ITT Population-Excluding Duplicate Patients
[18] = Week 1, 6 mg, ITT Population-Excluding Duplicate Patients
[19] = Week 1, Active Combined, ITT Population-Excluding Duplicate Patients
[20] = Week 1, Active Combined, ITT Population
[21] = Week 2, 3 mg, ITT Population-Excluding Duplicate Patients

Asn^1-Asp^2-Glu^3-Cys^4-Glu^5-Leu^6-Cys^7-Val^8-Asn^9-Val^10-Ala^11-Cys^12-Thr^13-Gly^14-Cys^15-Leu^16 (NDECELCVNVACTGCL; disulfide 4-12, 7-15) [Plecanatide, uroguanylin analogue, guanylate cyclase-C agonist; (C4:C12, C7:C15) bicycle peptide]
Difference in Proportions (adjusted) (Post-Treatment Week 13, 3 mg minus placebo, All Randomized (includes Duplicate Patients)): 0.042
Odds Ratio (adjusted) (Post-Treatment Week 13, 3 mg vs placebo, All Randomized (includes Duplicate Patients)): 0.796
CSBM Weekly Responders, n (%) [1]: 125 (26.6) n (%)
Non-Responders, n (%) [1]: 345 (73.4) n (%)
CSBM Weekly Responders, n (%) [2]: 121 (27.3) n (%)
Non-Responders, n (%) [2]: 322 (72.7) n (%)
CSBM Weekly Responders, n (%) [3]: 119 (27.4) n (%)
Non-Responders, n (%) [3]: 315 (72.6) n (%)
Difference in Proportions (adjusted) (Post-Treatment Week 13, 6 mg minus placebo, All Randomized (includes Duplicate Patients)): 0.003
Odds Ratio (adjusted) (Post-Treatment Week 13, 6 mg vs placebo, All Randomized (includes Duplicate Patients)): 0.981
CSBM Weekly Responders, n (%) [4]: 107 (22.7) n (%)
Non-Responders, n (%) [4]: 364 (77.3) n (%)
CSBM Weekly Responders, n (%) [5]: 106 (23.6) n (%)
Non-Responders, n (%) [5]: 343 (76.4) n (%)
CSBM Weekly Responders, n (%) [6]: 105 (23.7) n (%)
Non-Responders, n (%) [6]: 338 (76.3) n (%)
CSBM Weekly Responders, n (%) [7]: 232 (24.7) n (%)
Non-Responders, n (%) [7]: 709 (75.3) n (%)
Difference in Proportions (adjusted) (Post-Treatment Week 13, 3 mg minus placebo, ITT Population-Excluding Duplicate Patients): 0.045
Difference in Proportions (adjusted) (Post-Treatment Week 13, 3 mg minus placebo, ITT Population): 0.044
Odds Ratio (adjusted) (Post-Treatment Week 13, 3 mg vs placebo, ITT Population-Excluding Duplicate Patients): 0.786
Odds Ratio (adjusted) (Post-Treatment Week 13, 3 mg vs placebo, ITT Population): 0.792
Difference in Proportions (adjusted) (Post-Treatment Week 13, 6 mg minus placebo, ITT Population-Excluding Duplicate Patients): 0.008
Difference in Proportions (adjusted) (Post-Treatment Week 13, 6 mg minus placebo, ITT Population): 0.007
Odds Ratio (adjusted) (Post-Treatment Week 13, 6 mg vs placebo, ITT Population-Excluding Duplicate Patients): 0.954
Odds Ratio (adjusted) (Post-Treatment Week 13, 6 mg vs placebo, ITT Population): 0.962
CSBM Weekly Responders, n (%) [8]: 224 (25.5) n (%)
Non-Responders, n (%) [8]: 653 (74.5) n (%)
CSBM Weekly Responders, n (%) [9]: 227 (25.4) n (%)
Non-Responders, n (%) [9]: 665 (74.6) n (%)
Difference in Proportions (adjusted) (Post-Treatment Week 14, 3 mg minus placebo, All Randomized (includes Duplicate Patients)): 0.019
Odds Ratio (adjusted) (Post-Treatment Week 14, 3 mg vs placebo, All Randomized (includes Duplicate Patients)): 0.886
CSBM Weekly Responders, n (%) [10]: 95 (20.2) n (%)
Non-Responders, n (%) [10]: 375 (79.8) n (%)
CSBM Weekly Responders, n (%) [11]: 94 (21.2) n (%)
Non-Responders, n (%) [11]: 349 (78.8) n (%)
CSBM Weekly Responders, n (%) [12]: 93 (21.4) n (%)
Non-Responders, n (%) [12]: 341 (78.6) n (%)
Difference in Proportions (adjusted) (Post-Treatment Week 14, 6 mg minus placebo, All Randomized (includes Duplicate Patients)): −0.003
Odds Ratio (adjusted) (Post-Treatment Week 14, 6 mg vs placebo, All Randomized (includes Duplicate Patients)): 1.020
CSBM Weekly Responders, n (%) (Post-Treatment Week 14, 6 mg, All Randomized (includes Duplicate Patients)): 85 (18.0) n (%)
CSBM Weekly Responders, n (%) [13]: 83 (18.5) n (%)
Non-Responders, n (%) [13]: 366 (81.5) n (%)
CSBM Weekly Responders, n (%) [14]: 82 (18.5) n (%)
Non-Responders, n (%) [14]: 361 (81.5) n (%)
CSBM Weekly Responders, n (%) (Post-Treatment Week 14, Active Combined, All Randomized (includes Duplicate Patients)): 180 (19.1) n (%)
Difference in Proportions (adjusted) (Post-Treatment Week 14, 3 mg minus placebo, ITT Population-Excluding Duplicate Patients): 0.024
Difference in Proportions (adjusted) (Post-Treatment Week 14, 3 mg minus placebo, ITT Population): 0.026
Odds Ratio (adjusted) (Post-Treatment Week 14, 3 mg vs placebo, ITT Population-Excluding Duplicate Patients): 0.860
Odds Ratio (adjusted) (Post-Treatment Week 14, 3 mg vs placebo, ITT Population): 0.852
Difference in Proportions (adjusted) (Post-Treatment Week 14, 6 mg minus placebo, ITT Population-Excluding Duplicate Patients): −0.005
Difference in Proportions (adjusted) (Post-Treatment Week 14, 6 mg minus placebo, ITT Population): −0.002
Odds Ratio (adjusted) (Post-Treatment Week 14, 6 mg vs placebo, ITT Population-Excluding Duplicate Patients): 1.032
Odds Ratio (adjusted) (Post-Treatment Week 14, 6 mg vs placebo, ITT Population): 1.011
CSBM Weekly Responders, n (%) [15]: 175 (20.0) n (%)
Non-Responders, n (%) [15]: 702 (80.0) n (%)
CSBM Weekly Responders, n (%) [16]: 177 (19.8) n (%)
Non-Responders, n (%) [16]: 715 (80.2) n (%)
Difference in Proportions (adjusted) (Week 1, 3 mg minus placebo, All Randomized (includes Duplicate Patients)): 0.123
Odds Ratio (adjusted) (Week 1, 3 mg vs placebo, All Randomized (includes Duplicate Patients)): 0.468
Non-Responders, n (%) (Week 1, 3 mg, All Randomized (includes Duplicate Patients)): 342 (72.8) n (%)
CSBM Weekly Responders, n (%) (Week 1, 3 mg, ITT Population): 121 (27.3) n (%)
Non-Responders, n (%) (Week 1, 3 mg, ITT Population): 322 (72.7) n (%)
CSBM Weekly Responders, n (%) [17]: 121 (27.9) n (%)
Non-Responders, n (%) [17]: 313 (72.1) n (%)
Difference in Proportions (adjusted) (Week 1, 6 mg minus placebo, All Randomized (includes Duplicate Patients)): 0.106
Odds Ratio (adjusted) (Week 1, 6 mg vs placebo, All Randomized (includes Duplicate Patients)): 0.513
Non-Responders, n (%) (Week 1, 6 mg, All Randomized (includes Duplicate Patients)): 351 (74.5) n (%)
CSBM Weekly Responders, n (%) (Week 1, 6 mg, ITT Population): 114 (25.4) n (%)
Non-Responders, n (%) (Week 1, 6 mg, ITT Population): 335 (74.6) n (%)
CSBM Weekly Responders, n (%) [18]: 114 (25.7) n (%)
Non-Responders, n (%) [18]: 329 (74.3) n (%)
Non-Responders, n (%) (Week 1, Active Combined, All Randomized (includes Duplicate Patients)): 693 (73.6) n (%)
Difference in Proportions (adjusted) (Week 1, 3 mg minus placebo, ITT Population-Excluding Duplicate Patients): 0.123
Difference in Proportions (adjusted) (Week 1, 3 mg minus placebo, ITT Population): 0.118
Odds Ratio (adjusted) (Week 1, 3 mg vs placebo, ITT Population-Excluding Duplicate Patients): 0.477
Odds Ratio (adjusted) (Week 1, 3 mg vs placebo, ITT Population): 0.488
Difference in Proportions (adjusted) (Week 1, 6 mg minus placebo, ITT Population-Excluding Duplicate Patients): 0.102
Difference in Proportions (adjusted) (Week 1, 6 mg minus placebo, ITT Population): 0.099
Odds Ratio (adjusted) (Week 1, 6 mg vs placebo, ITT Population-Excluding Duplicate Patients): 0.533
Odds Ratio (adjusted) (Week 1, 6 mg vs placebo, ITT Population): 0.539
CSBM Weekly Responders, n (%) [19]: 235 (26.8) n (%)
Non-Responders, n (%) [19]: 642 (73.2) n (%)
CSBM Weekly Responders, n (%) [20]: 235 (26.3) n (%)
Non-Responders, n (%) [20]: 657 (73.7) n (%)
Difference in Proportions (adjusted) (Week 2, 3 mg minus placebo, All Randomized (includes Duplicate Patients)): 0.089
Odds Ratio (adjusted) (Week 2, 3 mg vs placebo, All Randomized (includes Duplicate Patients)): 0.582
CSBM Weekly Responders, n (%) (Week 2, 3 mg, All Randomized (includes Duplicate Patients)): 120 (25.5) n (%)
CSBM Weekly Responders, n (%) (Week 2, 3 mg, ITT Population): 112 (25.3) n (%)
Non-Responders, n (%) (Week 2, 3 mg, ITT Population): 331 (74.7) n (%)
CSBM Weekly Responders, n (%) [21]: 110 (25.3) n (%)
Non-Responders, n (%) [21]: 324 (74.7) n (%)
